Results on 13 compounds are retold here after patent publication US20140106387A1, “METHOD FOR CONTROLLING NAD(P)/NAD(P)H RATIO BY OXIDOREDUCTASE” (MD BIOALPHA CO., LTD., priority 2006, published 2014).

Assay [1] is described as follows: body weight and dietary intake of leptin receptor-deficient (ob/ob) mice. It is filed as in vivo, mouse. The following applies: for Weight reduction In ob/ob mice (4 wk): after four weeks, relative to ob/ob mice without administration (control), method of Example 23. How it is done:
All experimental animal procedures were performed according to a guideline of Institutional Animal Care and Use Committee, Chungnam National University School of Medicine. OLETF rats were purchased from Otsuka Research Institute. Male ob/ob and C57BL/6 mice were purchased from Jackson Laboratory. Animals were housed in a breeding room maintained at a constant temperature of […] and a 12 h/12 h light/dark (L/D) cycle. 4-week-old C57BL/6 male mice were fed ad libitum high fat diet (HFD, 24% (w/w) and 45% calories as fat, Research Diets Inc., New Brunswick, N.J. 08901, US) for 7 weeks. Mouse groups were divided into an untreated group, a vehicle-treated group (calcium silicate), a pair-fed group and a candidate compound-treated group (calcium silicate-coated […] nanoparticles). Body weight and dietary intake of animals were daily measured. Upon completion of experiments, some mice of each group were anesthetized and received MRI examinations. The remaining mice of the groups were anatomized and tissue weight thereof was measured. Epidydimal fat, liver, soleus muscle and extensor digitorum longus (EDL) were prepared, and immunohistochemical, oil-red 0 and pH-sensitive ATPase staining were performed for analysis.
FIGS. 46 and 47 show changes in dietary intake/body weight and changes in body weight for 56 days, according to daily administration of pyrano-1,2-naphthoquinone into leptin receptor-deficient (ob/ob) mice at a dose of 200 mg/kg via an oral route.
This Example was intended to examine effects of varying in vivo NAD(P)^+/NAD(P)H ratio by arbitrary external supply of NAD(P)^+, a method capable of elevating the NAD(P)^+/NAD(P)H ratio in vivo. 100 mg/kg of NAD^+ was administered daily to leptin receptor-deficient (ob/ob) mice via an intraperitoneal (i.p.) route. A control mice group was given i.p. administration of physiological saline at the same dose. Changes in dietary intake/body weight (A) and changes in body weight (B) were measured for 30 days.
200 mg/kg of DMF was daily administered to leptin receptor-deficient (ob/ob) mice via an oral route. A control group received daily i.p. administration of physiological saline at the same dose. Changes in body weight (A) and changes in dietary intake (B) were measured for 30 days. It was confirmed that dietary intake of the treatment group was regulated to a 60 to 70% level of the control group.
(§1) For a variety of NQO1-activating candidate compounds as listed in Table 1 below, a decrease of NAD(P)H was measured based on the aforesaid experimental method (disclosed in Section 10 hereinbefore: NADH recycling assay). In addition, according to the experimental method given in Example 23, the body weight of ob/ob mice after four weeks was measured.
(§2) In this connection, the decreasing degree of NAD(P)H was expressed as a relative amount of NAD(P)H measured upon administration of the NQO1-activating candidate compound, by taking the amount of NAD(P)H in the absence of the NQO1 activator NAD(P)H to be 100. In addition, the degree of the body weight loss was expressed as a percentage of the body weight of ob/ob mice with administration of the NQO1-activating candidate compound, relative to the body weight of ob/ob mice without administration of the NQO1-activating candidate compound (control) after four weeks.

The subject of a further assay is AMPK. The assay is described as follows: AMPK phosphorylation in HEK293 cells (Western blot). Type of assay: cell-based, human. The following applies: HEK293 cells, AICAR 2 mM, 30 min. Here is the method:
Cells were lysed in SDS sample buffer (62.5 mM Tris HCl (pH 6.8), 6% (w/v) SDS, 30% glycerol, 125 mM DTT, and 0.03% (w/v) bromophenol blue). The total cell lysates were boiled at a temperature of 100° C. for 5 min and electrophoresed on a sodium dodecyl sulfate-polyacrylamide gel, and proteins were transferred on a nitrocellulose membrane. The membrane was reacted in TBS (5% (w/v) milk and 0.1% Tween 20) for 1 hour, and then reacted with primary antibodies for 2 hours. Next, the membrane was developed using HRP-conjugated secondary antibodies (Phototope-HRP Western Blot Detection Kit, New England Biolabs, Beverly, Mass.).
In order to investigate the importance of an NQO1 protein in phosphorylation of AMP kinase, HepG2, MCF-7 and HEK293 cells were seeded onto 60 mm plates at a density of 1×10^6 cells/plate. After growing the cells for 24 hours, the culture medium was replaced with a serum-free medium, and cells were treated with pyrano-1,2-naphthoquinone (10 μM) for 30 min, respectively, in combination with a control group (DMSO). Cells were lysed in RIPA buffer and amounts of all proteins were quantified using a spectrophotometer, and 50 μg of the protein was subjected to electrophoresis. AMP kinase phosphorylation was examined using Anti-AMPK and Anti-pT172-AMPK, whereas the NQO1 protein was assayed using Anti-NQO1. From the fact that AMP kinase phosphorylation by pyran-1,2-naphthoquinone (10 μM) was not observed in HEK293 cells, it can be seen that the NQO1 protein is crucial for phosphorylation of AMP kinase.
In order to examine that an activity of NQO1 is important for the phosphorylation of AMP kinase, HEK293 cells were seeded onto a 6-well plate at a density of 1×10^5 cells/well, cultured for 24 hours, and transfected with pSG5-HA-NQO1 (500 ng) and pSG5-HA-NOQ1-C609T (500 ng) plasmids. After 24 hours, the culture medium was replaced with a serum-free medium, and the cells were treated with pyrano-1,2-naphthoquinone (10 μM) and AICAR (2 mM) for 30 min, in combination with a control (DMSO). AMP kinase phosphorylation were assayed using Anti-AMPK and Anti-pT172-AMPK, whereas transfected NQO1 was assayed using Anti-HA.
In addition, AMPK phosphorylation/activation was not promoted in HEK293 cells, except for HEK293 cells transfected with wild type NQO1.
Background: A western blot detects proteins with antibodies after separation by electrophoresis.

The subject of a further assay is NQO1. The assay is described as follows: NAD(P)H recycling assay (decrease of NAD(P)H by NQO1-activating candidate compounds). The following applies: for Residual amount of NAD(P)H(%): relative amount of NAD(P)H, amount in the absence of the NQO1 activator taken to be 100; for decrease of NAD(P)H and consequent body weight reduction: summary of Table 1 in words. Type of assay: biochemical. How it is done: (10) NAD(P)H Recycling Assay
An NADH recycling assay was carried out using the above-extracted S9 supernatant or human recombinant NQO1 (hrNQO1). 20 μg of the S9 supernatant or 0.5 unit of hrNQO1 in conjunction with 200 μM NAD(P)H were added to a 25 mM Tris/HCl (pH 7.4) solution containing 0.2 mg/mL bovine serum albumin. The enzymatic reaction was initiated with addition of a […] compound and absorbance changes were monitored and recorded at 340 nm for 10 min.
as §1, §2

On to `NC(=O)c1ccc[n+]([C@@H]2O[C@H](COP(=O)([O-])OP(=O)(O)OC[C@H]3O[C@@H](n4cnc5c(N)ncnc54)[C@H](O)[C@@H]3O)[C@@H](O)[C@H]2O)c1` [NAD^+], for which the body weight result in assay [1] (NAD+ 100 mg/kg daily i.p., 30 days) is “continuous weight loss for 30 days”. In addition, in assay [1] (NAD+ 100 mg/kg daily i.p., at around 10 days), the dietary intake/body weight entry is recorded as “notably decreased”.

For the compound `NC(=O)c1ncn([C@@H]2O[C@H](CO)[C@@H](O)[C@H]2O)c1N` [AICAR, 5-aminoimidazole-4-carboxamide-1-beta-D-ribofuranoside, reference compound], in the assay on AMPK, the “phosphorylation of AMPK” value is listed as “increase in phosphorylation of AMPK”.

For `CC(C)C1=CC2OC3=C(CC2(C)CC1)C(=O)C(=O)c1ccccc13` (stereo not drawn) [10-Isopropyl-7a-methyl-7a,8,9,11a-tetrahydro-7H-benzo[c]xanthene-5,6-dione], in assay [1], the “Weight reduction In ob/ob mice (4 wk)” value was −6.7 ± 2.1%. Also, in the assay on NQO1, the “Residual amount of NAD(P)H(%)” value came to 77.55 ± 4.19%; the “decrease of NAD(P)H and consequent body weight reduction” value was “significant decrease of NAD(P)H”.

Turning to `CC1=CC(=O)c2ccccc2C1=O` [Menadione, 2-Methyl-1,4-naphthoquinone, reference compound], in assay [1], the “Weight reduction In ob/ob mice (4 wk)” value was −2.7 ± 2.0%. Besides, the “Residual amount of NAD(P)H(%)” value with NQO1 came to 85.65 ± 2.58%.

On to `CC(C)=CC1(C)CCC2=C(O1)C(=O)c1ccccc1C2=O` (stereo not drawn) [2-Methyl-2-(2-methyl-propenyl)-3,4-dihydro-2H-benzo[g]Chromene-5,10-dione], for which, in assay [1], the “Weight reduction In ob/ob mice (4 wk)” value is reported as −0.7 ± 2.0%. Moreover, the “Residual amount of NAD(P)H(%)” value with NQO1 is given as 99.74 ± 2.69%.

Consider `CC(C)=C/C(C)=C/C1(C)OC2=C(CC1C)C(=O)C(=O)c1ccccc12` (stereo not drawn) [2-(2,4-Dimethyl-penta-1,3-dienyl)-2,3-dimethyl-3,4-dihydro-2H-benzo[h]chromene-5,6-dione], for which, in assay [1], the “Weight reduction In ob/ob mice (4 wk)” value is reported as −2.2 ± 0.07%. In addition, the “Residual amount of NAD(P)H(%)” value with NQO1 worked out at 98.06 ± 5.14%.

Regarding `CC1CC2=C(O1)c1ccccc1C(=O)C2=O` (stereo not drawn) [2-Methyl-2,3-dihydro-naphtho[1,2-b]furan-4,5-dione], the “Weight reduction In ob/ob mice (4 wk)” value in assay [1] was −39.5 ± 3.1%. Moreover, in the assay with NQO1, the “Residual amount of NAD(P)H(%)” value is 49.73 ± 1.98%; the “decrease of NAD(P)H and consequent body weight reduction” value was “significant decrease of NAD(P)H”.

`CC1(C)CC2=C(O1)c1ccccc1C(=O)C2=O` [2,2-Dimethyl-2,3-dihydro-naphtho[1,2-b]furan-4,5-dione]: the “Weight reduction In ob/ob mice (4 wk)” value in assay [1] is reported as −27.8 ± 8.1%. In the assay with NQO1, the “Residual amount of NAD(P)H(%)” value is reported as 45.9 ± 3.90%; the “decrease of NAD(P)H and consequent body weight reduction” value is listed as “significant decrease of NAD(P)H”.

As to `COC1=C(OC)C(=O)C(C/C=C(\C)CC/C=C(\C)CC/C=C(\C)CC/C=C(\C)CC/C=C(\C)CC/C=C(\C)CC/C=C(\C)CC/C=C(\C)CC/C=C(\C)CCC=C(C)C)=C(C)C1=O` [CoQ10, reference compound], the “Weight reduction In ob/ob mice (4 wk)” value in assay [1] is recorded as 2.3 ± 3.5− %. In addition, the “Residual amount of NAD(P)H(%)” value in the assay on NQO1 was 101.69 ± 1.32%.

Regarding `CC1OC2=C(C(=O)C(=O)c3ccccc32)C1(C)C` (stereo not drawn) [2,3,3-Trimethyl-2,3-dihydro-naphtho[1,2-b]furan-4,5-dione], in assay [1], the “Weight reduction In ob/ob mice (4 wk)” value is given as −46.2 ± 11.1%. In the assay on NQO1, the “Residual amount of NAD(P)H(%)” value is recorded as 64.39 ± 1.69%; the “decrease of NAD(P)H and consequent body weight reduction” value was “significant decrease of NAD(P)H”.

Take `CC1(C)CCC2=C(O1)C(=O)c1ccccc1C2=O` [2,2-Dmethyl-3,4-dihydro-2H-benzo[g]chromene-5,10-dione]: the “Weight reduction In ob/ob mice (4 wk)” value in assay [1] was found to be 1.3 ± 2.8%. Also, in the assay with NQO1, the “Residual amount of NAD(P)H(%)” value is 95 ± 4.5%.

Take `CC(C)C1=CC2OC3=C(CC2(C)CC1)C(=O)c1ccccc1C3=O` (stereo not drawn) [3-Isoprophy-12a-methyl-2,4a,12,12a-tetradro-7H-benzo[b]xanthene-6,11-dione]: in assay [1], the “Weight reduction In ob/ob mice (4 wk)” value is 0.3 ± 2.8%. In the assay with NQO1, the “Residual amount of NAD(P)H(%)” value is on record as 99.45 ± 3.56%.

`CC1C2=C(OC1(C)C)c1ccccc1C(=O)C2=O` (stereo not drawn) [2,2,3-Trimethyl-2,3-dihydro-naphtho[1,2-b]furan-4,5-dione]: the “Weight reduction In ob/ob mice (4 wk)” value in assay [1] is −27.9 ± 0.5%. In the assay on NQO1, the “Residual amount of NAD(P)H(%)” value was 52.75 ± 1.88%; the “decrease of NAD(P)H and consequent body weight reduction” value is given as “significant decrease of NAD(P)H”.
